CC1=C(/C=C/C(C)=C/C=C/C(C)=C/C=C/C=C(C)/C=C/C=C(C)/C=C/C2=C(C)C(=O)CCC2(C)C)C(C)(C)CCC1=O
solubility (mole fraction)
Details | 293.15 K | 298.15 K | 303.15 K | 308.15 K | 313.15 K | 318.15 K | 323.15 K | 333.15 K | 343.15 K
in acetone | 1.95e-05 | 2.45e-05 | 3.1e-05 | 3.72e-05 | 4.22e-05 | 4.94e-05 | – | – | –
in cyclohexane | 1.27e-05 | – | 1.33e-05 | – | 1.38e-05 | – | 1.48e-05 | 1.71e-05 | 2.06e-05
in ethanol | 4.5e-06 | – | 5.6e-06 | – | 6.35e-06 | – | 7.48e-06 | 8.72e-06 | 9.9e-06
in ethyl acetate | 2.71e-05 | – | 3.67e-05 | – | 5.43e-05 | – | 8.58e-05 | 0.000144 | 0.000256
in methanol | 2.61e-06 | – | 2.93e-06 | – | 3.27e-06 | – | 3.77e-06 | 4.53e-06 | –
in toluene | 0.000118 | – | 0.000146 | – | 0.000171 | – | 0.00019 | 0.000202 | 0.000208
